# Literature values, collected in patent publication US8415449B2, “Bioresorbable polymers synthesized from monomer analogs of natural metabolites” (Rutgers, The State University of New Jersey, priority 2009, dated 2013).
# Conditions: as part of the clinical evaluation of the sebacic acid anhydride copolymer
smiles,measurement,value
O=C(O)CCCCCCCCC(=O)O [sebacic acid],toxicity finding,nontoxic
